This passage reports viability results from the supplement of paper PMC6723410.

Molecules are shown by their SMILES.

This experiment relates to GUMC-403. Description: viability at highest tested concentration (max response) relative to DMSO (% of DMSO control); higher = less cytotoxic. Particulars: library / dose series: MIPE library, 11-point 1:3 dilution, 48 h. The gist of the method: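 Viability at the highest tested concentration is given relative to vehicle control. For this, conditionally reprogrammed patient-derived GUMC-403 papilloma cells at 700/well in 1536-well plates were exposed to 23 nL of pinned compound for 48 h. Luminescence from CellTiter-Glo was read on a ViewLux and scaled between empty wells (0%) and vehicle wells (100%).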

For the setting “top concentration 46.1 µM”, `C[C@H]1[C@@H](CC(C[C@H]2O[C@@H]3O[C@]4(C)CC[C@H]5[C@H](C)CC[C@@H]([C@H]2C)[C@@]35OO4)C[S+](=O)([O-])c2ccc(COC(=O)N(C)C)cc2)O[C@@H]2O[C@]3(C)CC[C@H]4[C@H](C)CC[C@@H]1[C@@]24OO3` showed a viability of 104. For `C[C@@H](N)c1ccc(C(=O)Nc2ccnc3[nH]ccc23)cc1`, where the note is “top concentration 46.1 µM”, the viability is 139.

`CCOC(=O)N[C@@H]1CC[C@@H]2[C@@H](C1)C[C@H]1C(=O)O[C@H](C)[C@H]1[C@H]2/C=C/c1ccc(-c2cccc(F)c2)cn1` returned a viability (top concentration 46.1 µM) of 123. Same read-out and setting: for `COC(=O)[C@H](Cc1ccccc1)NC(=O)[C@@H](N)CC(=O)O` the value was 102; for `COC1=CC(=C2C(=O)N(COC/3=C/C(=O)N4\C=C/C=C(OCCN5CCCCC5)\C4=N3)[S+]([O-])(=O)C2=C1)C(C)C`, 122; for `Nc1nc(Cl)nc2c1ncn2[C@H]1C[C@H](O)[C@@H](CO)O1`, 120. Regarding `CC[C@H](NC(=O)[C@H](C)NC)C(=O)N1C[C@@H](O)C[C@H]1Cc1c(-c2[nH]c3cc(F)ccc3c2C[C@@H]2C[C@H](O)CN2C(=O)[C@H](CC)NC(=O)[C@H](C)NC)[nH]c2cc(F)ccc12`, the viability (top concentration 46.1 µM) came to 108.

In turn, `COc1cc2nc(N3CCN(C(=O)C4COc5ccccc5O4)CC3)nc(N)c2cc1OC` (centres undefined) displayed a viability (top concentration 46.1 µM) of 115. The same measure, in the same setting: for `CC1(C)CNc2cc(NC(=O)c3cccnc3NCc3ccncc3)ccc21` the value was 117; for `CCOC(=O)C/1=C(C)/NC(=S)NC1C2=CC=CC(=C2)O` (centres undefined), 118; for `O=C1C(CCC(O)c2ccc(F)cc2)C(c2ccc(O)cc2)N1c1ccc(F)cc1` (centres undefined), 94.9. The same measure, in the same setting: for `CC(=O)[C@H]1CC[C@H]2[C@@H]3CCC4=CC(=O)CC[C@]4(C)[C@H]3CC[C@]12C` the value was 118; for `CC(C)[C@@H](N(CCCN)C(=O)C1=CC=C(C)C=C1)C/2=N/C3=CC(=CC=C3C(=O)N2CC4=CC=CC=C4)Cl`, 121; for `COc1ccc(-n2nc(C(N)=O)c3c2C(=O)N(c2ccc(N4CCCCC4=O)cc2)CC3)cc1`, 146. As to `Cc1cc(/C=c2/sc3nc4ccccc4n3c2=O)c(C)n1-c1ccccc1`, the viability (top concentration 46.1 µM) amounted to 106. As for `CNC(=O)C1=CC=C(C)C(=C1)N2C(=C/C(=C(/Br)C2=O)OCC3=C(F)C=C(F)C=C3)\C`, the viability (top concentration 46.1 µM) stood at 109. `O=C(O)CCCc1ccc(N(CCCl)CCCl)cc1` displayed a viability (top concentration 46.1 µM) of 111. Still for that read-out and setting: the same measure for `COC(=O)[C@@H]1CC2=CC(=O)CC[C@]2(C)[C@@]23O[C@@H]2C[C@@]2(C)[C@@H](CC[C@@]24CCC(=O)O4)[C@H]13`: 128; for `CN(C1CCc2c(c3ccccc3n2CC(=O)O)C1)[S+](=O)([O-])c1ccc(F)cc1` (centres undefined): 114; for `C[C@]1(CO)CN(c2cc(C(=O)Nc3ccc4c(c3)-c3c(c(C(N)=O)nn3-c3ccc(F)cc3)CC4)c(Cl)cn2)C[C@@]1(C)CO`: 64.7. The same measure, in the same setting: the same measure for `O=c1[nH]cnc2c1ncn2[C@H]1CC[C@@H](CO)O1`: 144; for `COc1cc([C@@H]2c3cc4c(cc3[C@H](O)[C@H]3COC(=O)[C@H]23)OCO4)cc(OC)c1OC`: 115; for `CN(C)C(=O)COC(=O)Cc1ccc(OC(=O)c2ccc(NC(=N)N)cc2)cc1`: 62.7. On to `CN(C)C(=O)[C@H](O)[C@H](Cc1ccccc1)NC(=O)c1cc2cc(Cl)ccc2[nH]1`, for which the viability (top concentration 46.1 µM) amounted to 114.

For the compound `CC(O)(C#Cc1ccc2c(c1)N(c1nc(N)ncc1Cl)CC2)c1nccs1` (centres undefined), the viability (top concentration 46.1 µM) was determined as 86.5. The same measure, in the same setting: the same measure for `C[C@H](NC(=O)C(=O)Nc1ccccc1C(C)(C)C)C(=O)N[C@@H](CC(=O)O)C(=O)COc1c(F)c(F)cc(F)c1F`: 68.7; for `O=C1NC(=O)/C(=C/c2ccc(-c3ccc(F)cc3O)o2)S1`: 83; for `CC(C)c1ccccc1Cc1cc(C(=O)Nc2ccc([S+](=O)([O-])c3ccccc3C(C)(C)C)cc2)c(O)c(O)c1O`: 56.4. The same measure, in the same setting: for `COC[C@@H](NC(C)=O)C(=O)NCc1ccccc1` the value was 133. Still for that read-out and setting: the same measure for `CC1(CN2CCC(n3c(=O)[nH]c4ccccc43)CC2)OCc2ccccc2-n2cccc21` (centres undefined): 82.8. The compound `O=C(O)c1nn(Cc2ccc(Cl)cc2Cl)c2ccccc12` showed a viability (top concentration 46.1 µM) of 99.7. Same read-out and setting: the same measure for `CC(C)(C)c1cc(C=C(C#N)C#N)cc(Br)c1O`: 101; for `CCCCCOC(=O)NC\1=N\C(=O)N(\C=C1F)[C@@H]2O[C@H](C)[C@@H](O)[C@H]2O`: 83.9. Still for that read-out and setting: the same measure for `Cn1cc(-c2ccc3nnc(C(F)(F)c4ccc5ncccc5c4)n3n2)cn1`: 110; for `CN(C)[C@@H](CCOc1cccc2ccccc12)c1ccccc1`: 92.3. On the same count and under the same terms, for `C[N]1C=C(C=N1)C2=C3\C=N/NC(=O)C4=C3C(=CC(=C4)NC(=O)[C@H](N)C5CCCCC5)[NH]2` the value was 100; for `N[S+]([O-])(=O)C1=C(Cl)C=C2\N=C/N[S+]([O-])(=O)C2=C1`, 127; for `CNC(=O)c1cc(Oc2ccc(NC(=O)Nc3ccc(Cl)c(C(F)(F)F)c3)c(F)c2)ccn1`, 101. The compound `O=C(O)c1cccc(-c2noc(-c3ccccc3F)n2)c1` gave a viability (top concentration 46.1 µM) of 118. On the same count and under the same terms, the same measure for `CC1(C)[C@@H](O[C@H]2O[C@H](C(=O)O)[C@@H](O)[C@H](O)[C@H]2O[C@@H]2O[C@H](C(=O)O)[C@@H](O)[C@H](O)[C@H]2O)CC[C@]2(C)[C@H]3C(=O)C=C4[C@@H]5C[C@@](C)(C(=O)O)CC[C@]5(C)CC[C@@]4(C)[C@]3(C)CC[C@@H]12`: 115; for `O=C1CCc2cc(OCCCCc3nnnn3C3CCCCC3)ccc2N1`: 107; for `N[S+]([O-])(=O)C1=CC=C(NC/2=C/C(=O)C3=CC=CC=C3C2=O)C=C1`: 142. On the same count and under the same terms, for `C[C@]12CCC(=O)C(O)=C1CC[C@@H]1[C@@H]2CC[C@]2(C)C(=O)CC[C@@H]12` the value was 113; for `COc1ccc(-c2ccc3cc(C(=O)O)ccc3c2)cc1C12CC3CC(CC(C3)C1)C2`, 112.

With `N#Cc1ccc(NC(=O)Nc2ccccc2Br)c2nn[nH]c12`, the viability (top concentration 46.1 µM) stood at 129. The same measure, in the same setting: the same measure for `O=C(O)[C@@H](c1ccc(OCc2ccc3ccccc3n2)cc1)C1CCCC1`: 108; for `Cc1cn2c(-c3cn[nH]c3)cnc2c(Nc2ccc(C(=O)N3CCNCC3)cc2F)n1`: 60.9; for `CC(=O)OC\C1=C(\[N@]2[C@@H](SC1)[C@H](N)C2=O)C(O)=O`: 143. On the same count and under the same terms, for `Nc1nc(Nc2ccc([S+](N)(=O)[O-])cc2)nn1C(=O)c1c(F)cccc1F` the value was 111. Compound `CCN(CCO)CCCC(C)Nc1ccnc2cc(Cl)ccc12` (centres undefined) displayed a viability (top concentration 46.1 µM) of 116. Under “top concentration 23 µM”, `O=P(O)(O)C(O)(Cn1ccnc1)P(=O)(O)O` gave a viability of 122. Take `C=C1C(=O)[C@@]23C(CC[C@@H]1[C@H]2O)[C@@]12CO[C@]3(O)[C@@H](O)[C@@H]1C(C)(C)CC[C@@H]2O` (some centres undefined): the viability (top concentration 46.1 µM) is 119. Same read-out and setting: for `CN1[C@@H]2CCC[C@H]1C[C@@H](NC(=O)c1nn(C)c3ccccc13)C2.Cl` the value was 105. The same measure, in the same setting: for `CC=CC1=C(C(=O)O)N2C(=O)[C@@H](NC(=O)[C@H](N)c3ccc(O)cc3)[C@H]2SC1.O` the value was 147; for `CCN(CC)CCCC(C)Nc1nc(C)cc(Nc2ccc3nc(C)cc(N)c3c2)n1` (centres undefined), 106; for `CN(C)c1nc(Cc2ccc(NC(=O)c3ccc4ccccc4c3)cc2)nc(Cl)c1CC(=O)O`, 114. On the same count and under the same terms, the same measure for `COc1ccc2[nH]cc(CCNC(C)=O)c2c1`: 106; for `CC(C)OC1=CC=C2C(=C1)O\C=C(/C2=O)C3=CC=CC=C3`: 111; for `COc1ccc(CC2NCCc3cc(OC)c(OC)cc32)cc1OC` (centres undefined): 91.3. In the case of `CN1CCCN(CC1)C2=CC=C3C(=O)\C(=C/4SC5=C(C=CC=C5)N4C3=N2)C(=O)NCC6=CN=C(C)C=N6`, the viability (top concentration 23 µM) turned out to be 101. `CNc1nc(Nc2ccc(C(=O)N3CCOCC3)cc2OC)ncc1Cl` displayed a viability (top concentration 46.1 µM) of 108. For the setting “top concentration 46.1 µM”, `CC[C@H]1OC(=O)[C@H](C)[C@@H](O[C@H]2C[C@@](C)(OC)[C@@H](O)[C@H](C)O2)[C@H](C)[C@@H](O[C@@H]2O[C@H](C)C[C@H](N(C)C)[C@H]2O)[C@](C)(O)C[C@@H](C)/C(=N\OCOCCOC)[C@H](C)[C@@H](O)[C@]1(C)O` came in with a viability of 83.3. Still for that read-out and setting: for `CN(C)c1nc(Cc2ccc(NC(=O)c3ccc(C(F)(F)F)cc3)cc2)nc(N(C)C)c1CC(=O)O` the value was 127. In turn, `CCC1=C2C=C(OC(=O)N3CCC(CC3)N4CCCCC4)C=CC2=NC\5=C1CN6C(=O)\C7=C(/C=C56)[C@@](O)(CC)C(=O)OC7` came in with a viability (top concentration 46.1 µM) of 56.1. Still for that read-out and setting: for `CNc1nc(-c2ccc3c(N)n[nH]c3c2)cc(N2C[C@@H](C(=O)NC3CCCCC3)CC[C@H]2C)n1` the value was 87.8.

Compound `Cc1cnc(Nc2cccc(CN3CCOCC3)c2)nc1Nc1cccc([S+](=O)([O-])NC(C)(C)C)c1` showed a viability (top concentration 46.1 µM) of 101. On the same count and under the same terms, for `CCCOc1ccc2[nH]c(NC(=O)OC)nc2c1` the value was 108; for `CC1=CC=C(C=C1)\C2=N\C3=CC=C(Cl)C=C3OC2`, 128. Same read-out and setting: the same measure for `CN1/C=C(\N=C(NC2=CC=C(C=C2)C(=O)N3CCOCC3)/C1=O)/C4=C(C)C(=CC=C4)NC(=O)C5=CC=C(C=C5)C(C)(C)C`: 117.
